Assay results published in ChEMBL document CHEMBL1126665, “o-Chlorobenzenesulfonamidic derivatives of (aryloxy)propanolamines as beta-blocking/diuretic agents” (J Med Chem, 1993).
Values joined by “and” are separate entries in the source; they are usually repeats but may differ in a detail not shown here. Identical values can stand only once. Active and inactive are the calls of the source. The calls are words filed in the database; no cut-off is given here.

Assays:
[1] = system: Rattus norvegicus; assay: Saluretic activity was evaluated for K+ by flame photometry at 15 mg/kg perorally; format: functional; details: route oral
[2] = system: Rattus norvegicus; assay: Saluretic activity was evaluated for K+ by flame photometry at 30 mg/kg perorally; format: functional; details: route oral
[3] = system: Rattus norvegicus; assay: Saluretic activity was evaluated for K+ by flame photometry at 8 mg/kg perorally; format: functional; details: route oral
[4] = system: Rattus norvegicus; assay: Saluretic activity was evaluated for Na+ by flame photometry at 15 mg/kg perorally; format: functional; details: route oral
[5] = system: Rattus norvegicus; assay: Saluretic activity was evaluated for Na+ by flame photometry at 30 mg/kg perorally; format: functional; details: route oral
[6] = system: Rattus norvegicus; assay: Saluretic activity was evaluated for Na+ by flame photometry at 8 mg/kg perorally; format: functional; details: route oral
[7] = system: Rattus norvegicus; assay: Diuretic activity given as urinary output of 15 mg/kg perorally administered compound in rats; format: functional, Urine; details: route oral
[8] = system: Rattus norvegicus; assay: Diuretic activity given as urinary output of 30 mg/kg perorally administered compound in rats; format: functional, Urine; details: route oral
[9] = system: Rattus norvegicus; assay: Diuretic activity given as urinary output of 8 mg/kg perorally administered compound in rats; format: functional, Urine; details: route oral
[10] = Ratio of saluretic activity for Na+ over saluretic activity of K+ in rats after peroral administration of 15 mg/kg of compound; format: functional; details: route oral
[11] = Ratio of saluretic activity for Na+ over saluretic activity of K+ in rats after peroral administration of 30 mg/kg of compound; format: functional; details: route oral
[12] = Ratio of saluretic activity for Na+ over saluretic activity of K+ in rats after peroral administration of 8 mg/kg of compound; format: functional; details: route oral
[13] = target: Beta-1 adrenergic receptor (Homo sapiens, UniProt P08588)
[14] = target: T1, Adrenergic receptor beta (Rattus norvegicus) (UniProt P18090+P10608+P26255)
Description: beta-adrenoceptor blocking activity of the intravenously administered compound was evaluated by inhibition of isiprenaline-induced tachycardia in rats; NA indicates not active

[15] = system: Rattus norvegicus; assay: Saluretic activity was evaluated for K+ by flame photometry at 50 mg/kg perorally; format: functional; details: route oral
[16] = system: Rattus norvegicus; assay: Saluretic activity was evaluated for Na+ by flame photometry at 50 mg/kg perorally; format: functional; details: route oral
[17] = system: Rattus norvegicus; assay: Diuretic activity given as urinary output at 15 mg/kg perorally; format: functional, Urine; details: route oral
[18] = system: Rattus norvegicus; assay: Diuretic activity given as urinary output of 50 mg/kg perorally administered compound in rats; format: functional, Urine; details: route oral
[19] = Ratio of saluretic activity for Na+ over saluretic activity of K+ in rats after peroral administration of 50 mg/kg of compound; format: functional; details: route oral
[20] = target: Beta-1 adrenergic receptor (Meleagris gallopavo) (UniProt P07700); assay: Inhibition of [3H]dihydroalprenolol binding ([3H]-DHA) to beta-1-adrenoceptor from turkey erythrocyte membranes; Not active
[21] = target: T1, Adrenergic receptor beta (Rattus norvegicus); remark: listed apart in the source
Description: beta-adrenoceptor blocking activity of the perorally administered compound was evaluated by inhibition of isiprenaline-induced tachycardia in rats; NA indicates not active

Sequence of Beta-1 adrenergic receptor (P08588 whole entry): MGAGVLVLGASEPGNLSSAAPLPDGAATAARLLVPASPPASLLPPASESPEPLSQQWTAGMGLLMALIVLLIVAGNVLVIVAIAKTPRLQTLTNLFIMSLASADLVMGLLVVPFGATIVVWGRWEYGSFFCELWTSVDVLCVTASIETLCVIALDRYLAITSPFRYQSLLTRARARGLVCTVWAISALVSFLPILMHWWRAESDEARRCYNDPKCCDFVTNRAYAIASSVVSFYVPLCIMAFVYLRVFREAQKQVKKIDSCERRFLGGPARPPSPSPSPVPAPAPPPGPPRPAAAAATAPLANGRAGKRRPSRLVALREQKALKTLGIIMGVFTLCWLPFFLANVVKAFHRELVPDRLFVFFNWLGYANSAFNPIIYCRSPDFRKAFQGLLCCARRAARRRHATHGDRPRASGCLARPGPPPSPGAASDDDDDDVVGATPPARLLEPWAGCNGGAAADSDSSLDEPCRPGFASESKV
Sequence of Beta-1 adrenergic receptor (Meleagris gallopavo) (P07700 whole entry, looked up): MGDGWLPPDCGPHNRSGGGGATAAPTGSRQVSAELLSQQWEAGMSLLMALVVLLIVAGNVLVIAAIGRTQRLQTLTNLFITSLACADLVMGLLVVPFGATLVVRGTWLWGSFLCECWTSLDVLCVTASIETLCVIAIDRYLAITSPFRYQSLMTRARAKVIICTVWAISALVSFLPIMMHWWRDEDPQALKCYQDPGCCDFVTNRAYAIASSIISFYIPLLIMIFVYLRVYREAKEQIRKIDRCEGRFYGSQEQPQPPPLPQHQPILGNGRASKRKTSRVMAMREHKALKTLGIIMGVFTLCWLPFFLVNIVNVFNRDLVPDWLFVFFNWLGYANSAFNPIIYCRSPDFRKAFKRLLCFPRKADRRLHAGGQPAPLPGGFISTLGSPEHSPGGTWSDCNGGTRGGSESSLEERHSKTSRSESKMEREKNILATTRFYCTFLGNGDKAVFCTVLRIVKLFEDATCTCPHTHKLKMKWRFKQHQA

Row | SMILES | Activity [1] [m equiv kg-1] | Activity [2] [m equiv kg-1] | Activity [3] [m equiv kg-1] | Activity [4] [m equiv kg-1] | Activity [5] [m equiv kg-1] | Activity [6] [m equiv kg-1] | Urinary output [7] [mL] | Urinary output [8] [mL] | Urinary output [9] [mL] | Ratio [10] | Ratio [11] | Ratio [12] | Ki [13] | also measured
1 | NS(=O)(=O)c1cc(C(=O)NCCNCC(O)COc2cccc3ccccc23)ccc1Cl (stereo not given) | 1.7 | 1.4 | 1.2 | 3.1 | 1.8 | 2.5 | 4.8 | 2.9 | 5.2 | 1.8 | 1.2 | 2.1 | – | –
2 | NS(=O)(=O)c1cc(S(=O)(=O)N2CCN(CC(O)COc3cccc4c3SCC(=O)N4)CC2)ccc1Cl (stereo not given) | – | – | – | – | – | – | – | – | – | – | – | – | Not Active | –
3 | NS(=O)(=O)c1cc(C(=O)N2CCN(CC(O)COc3cccc4c3CCC(=O)N4)CC2)ccc1Cl (stereo not given) | – | – | – | – | – | – | – | – | – | – | – | – | Not Active | –
4 | NS(=O)(=O)c1cc(N2CCN(CC(O)COc3cccc4c3SCC(=O)N4)CC2)ccc1Cl (stereo not given) | 1.8 | 2 | 1.7 | 2.9 | 3 | 2.2 | 3.1 | 3.5 | 2.6 | 1.6 | 1.5 | 1.3 | – | ED50 [14]: inactive
5 | NS(=O)(=O)c1cc(C(=O)NCCNCC(O)COc2cccc3c2SCC(=O)N3)ccc1Cl (stereo not given) | 0.9 | 1.1 | 0.8 | 1.1 | 1.7 | 0.9 | – | 2 | 1.2 | 1.2 | 1.5 | 1.1 | – | Activity [15]: 1.5 m equiv kg-1; Activity [16]: 3.1 m equiv kg-1; Urinary output [17]: 1.7 mL; Urinary output [18]: 4.3 mL; Ratio [19]: 2.1
6 | NS(=O)(=O)c1cc(C(=O)N2CCN(CC(O)COc3cccc4c3SCC(=O)N4)CC2)ccc1Cl (stereo not given) | – | – | – | – | – | – | – | – | – | – | – | – | Not Active | –
7 | NS(=O)(=O)c1cc(N2CCN(CC(O)COc3cccc4ccccc34)CC2)ccc1Cl (stereo not given) | 1.4 | 2 | 1.3 | 1.7 | 3.2 | 2.4 | 2.2 | 2.9 | 1.9 | 1.2 | 1.4 | 1.8 | – | –
8 | NS(=O)(=O)c1cc(C(=O)NCCNCC(O)COc2cccc3c2CCC(=O)N3)ccc1Cl (stereo not given) | 1.5 | 1.8 | 1.8 | 2 | 2.9 | 2.6 | 2.6 | 3.3 | 2.8 | 1.3 | 1.6 | 1.4 | – | –
9 | NS(=O)(=O)c1cc(N2CCN(CC(O)COc3cccc4c3CCC(=O)N4)CC2)ccc1Cl (stereo not given) | – | – | – | – | – | – | – | – | – | – | – | – | Not Active | –
10 | NS(=O)(=O)c1cc(C(=O)N2CCN(CC(O)COc3cccc4ccccc34)CC2)ccc1Cl (stereo not given) | – | – | – | – | – | – | – | – | – | – | – | – | – | Ki [20]: Not Active
11 | NS(=O)(=O)c1cc(S(=O)(=O)NCCNCC(O)COc2cccc3c2SCC(=O)N3)ccc1Cl (stereo not given) | 1.3 | 2.4 | 1.3 | 3 | 4.5 | 3.2 | 3.7 | 5.7 | 3.5 | 2.3 | 1.9 | 2.5 | – | –
12 | NS(=O)(=O)c1cc(NCCNCC(O)COc2cccc3c2CCC(=O)N3)ccc1Cl (stereo not given) | – | – | – | – | – | – | – | – | – | – | – | – | Not Active | –
13 | NS(=O)(=O)c1cc(NCCNCC(O)COc2cccc3ccccc23)ccc1Cl (stereo not given) | 2 | 2.6 | 1.6 | 3.1 | 3.2 | 2.8 | 3.2 | 3.5 | 2.4 | 1.5 | 1.2 | 1.7 | – | ED50 [14]: inactive
14 | NS(=O)(=O)c1cc(S(=O)(=O)NCCNCC(O)COc2cccc3ccccc23)ccc1Cl (stereo not given) | – | – | – | – | – | – | – | – | – | – | – | – | – | ED50 [14]: inactive; ED50 [21]: inactive
15 | NS(=O)(=O)c1cc(S(=O)(=O)N2CCN(CC(O)COc3cccc4c3CCC(=O)N4)CC2)ccc1Cl (stereo not given) | – | – | – | – | – | – | – | – | – | – | – | – | Not Active | –
16 | NS(=O)(=O)c1cc2c(cc1Cl)NCNS2(=O)=O [HYDROCHLOROTHIAZIDE] | 1.9 | 2.3 | 1.8 | 3.9 | 5.1 | 3.1 | 5.9 | 7.3 | 4 | 2 | 2.2 | 1.7 | – | –
17 | NS(=O)(=O)c1cc(NCCNCC(O)COc2cccc3c2SCC(=O)N3)ccc1Cl (stereo not given) | 1.3 | 1.2 | 1.1 | 2.6 | 2.2 | 2.1 | 3.3 | 3.1 | 2.6 | 2 | 1.8 | 1.9 | – | –
18 | NS(=O)(=O)c1cc(S(=O)(=O)N2CCN(CC(O)COc3cccc4ccccc34)CC2)ccc1Cl (stereo not given) | – | – | – | – | – | – | – | – | – | – | – | – | Not Active | –
19 | NS(=O)(=O)c1cc(S(=O)(=O)NCCNCC(O)COc2cccc3c2CCC(=O)N3)ccc1Cl (stereo not given) | 1.2 | 1.5 | 0.9 | 2.3 | 3.4 | 1.8 | – | – | 2.2 | 1.9 | 2.3 | 2 | – | Urinary output ([7]; 15 mg/kg): 3.1 mL and 4.6 mL
